{
  "source": "patent US9216977B2",
  "about": "(The University of North Carolina at Chapel Hill, priority 2009, dated 2015)",
  "key": {"KBvin": {"tested_on": "KBvin", "assay": "in vitro screen against KBvin cell line, GI50", "type": "cell-based"}, "A549": {"tested_on": "A549", "assay": "in vitro screen against human tumor cell line A549 (lung), GI50", "type": "cell-based"}, "DU145": {"tested_on": "DU145", "assay": "in vitro screen against human tumor cell line DU-145 (prostate), GI50", "type": "cell-based"}, "KB": {"tested_on": "KB", "assay": "in vitro screen against human tumor cell line KB (nasopharyngeal), GI50", "type": "cell-based", "conditions": "read-out: GI50 KB"}, "HCT-8": {"tested_on": "HCT-8", "assay": "in vitro screen against human tumor cell line HCT-8 (colon), GI50", "type": "cell-based"}, "[1]": {"conditions": "Example 2, Table 2, 12-aza-antofines, read-out: GI50 A549"}, "[2]": {"conditions": "Example 2, Table 2, 12-aza-antofines, read-out: GI50 DU145"}, "[3]": {"conditions": "Example 2, Table 2, 12-aza-antofines"}, "[4]": {"conditions": "Homo sapiens, KBVIN, Example 3, Table 1"}, "[5]": {"conditions": "Homo sapiens, A549, Example 3, Table 1, read-out: GI50 A549"}, "[6]": {"conditions": "Homo sapiens, DU-145, Example 3, Table 1, read-out: GI50 DU145"}, "[7]": {"conditions": "Homo sapiens, KB, Example 3, Table 1"}, "[8]": {"conditions": "Homo sapiens, HCT-8, Example 2, Table 2, 12-aza-antofines, read-out: GI50 HCT-8"}, "[9]": {"conditions": "Homo sapiens, A549, Example 2, Table 2, 12-aza-antofines, read-out: GI50 A549"}, "[10]": {"conditions": "Homo sapiens, DU-145, Example 2, Table 2, 12-aza-antofines, read-out: GI50 DU145"}, "[11]": {"conditions": "Homo sapiens, KB, Example 2, Table 2, 12-aza-antofines"}, "[12]": {"conditions": "Homo sapiens, HCT-8, read-out: GI50 HCT-8"}, "[13]": {"conditions": "Homo sapiens, A549, read-out: GI50 A549"}, "[14]": {"conditions": "Homo sapiens, DU-145, read-out: GI50 DU145"}, "[15]": {"conditions": "Homo sapiens, HCT-8, Example 2, Table 3, 13-aza-cryptopleurines, read-out: GI50 HCT-8"}, "[16]": {"conditions": "Homo sapiens, A549, Example 2, Table 3, 13-aza-cryptopleurines, read-out: GI50 A549"}, "[17]": {"conditions": "Homo sapiens, DU-145, Example 2, Table 3, 13-aza-cryptopleurines, read-out: GI50 DU145"}, "[18]": {"conditions": "Homo sapiens, KB, Example 2, Table 3, 13-aza-cryptopleurines"}},
  "note": "Like-named read-outs stand apart in the source and are kept apart here.",
  "data": [
    {"smiles": "COc1ccc2c3c(c4cc(OC)c(OC)cc4c2c1)C[C@H]1CN(CC(C)C)CN1C3", "values": [
      {"measurement": "melting point", "result": "93 to 95", "unit": "°C"}
    ]},
    {"smiles": "COc1ccc2c3c(c4cc(OC)c(OC)cc4c2c1)CC1CN(C)CN1C3", "note": "(stereo in doubt) [Compound 3k, (R)-12-aza-12N-dimethylamino-antofine]", "values": [
      {"measurement": "GI50", "setting": "KBvin; Homo sapiens, Table 2, cells marked (KBvin) in the HCT-8 column", "result": 11, "unit": "µM"},
      {"measurement": "GI50", "setting": "A549; [1]", "result": 4.15, "unit": "µM"},
      {"measurement": "GI50", "setting": "DU145; [2]", "result": 6.01, "unit": "µM"},
      {"measurement": "GI50", "setting": "KB; [3]", "result": 2.38, "unit": "µM"}
    ]},
    {"smiles": "COc1ccc2c3c(c4cc(OC)c(OC)cc4c2c1)C[C@H]1CN(Cc2ccccc2)CN1C3", "note": "[3a]", "values": [
      {"measurement": "melting point", "result": "113 to 115", "unit": "°C"}
    ]},
    {"smiles": "COc1ccc2c3c(c4cc(OC)c(OC)cc4c2c1)C[C@H]1[C@@H](O)CCN1C3", "note": "[Compound 3a]", "values": [
      {"measurement": "GI50", "setting": "KBvin; [4]", "result": 3.42, "unit": "µM"},
      {"measurement": "GI50", "setting": "A549; [5]", "result": 2.81, "unit": "µM"},
      {"measurement": "GI50", "setting": "DU145; [6]", "result": 3.2, "unit": "µM"},
      {"measurement": "GI50", "setting": "KB; [7]", "result": 1.83, "unit": "µM"}
    ]},
    {"smiles": "COc1ccc2c3c(c4cc(OC)c(OC)cc4c2c1)C[C@H]1[C@H](O)CCN1C3", "note": "[Compound 3b]", "values": [
      {"measurement": "GI50", "setting": "KBvin; [4]", "result": 0.64, "unit": "µM"},
      {"measurement": "GI50", "setting": "A549; [5]", "result": 0.27, "unit": "µM"},
      {"measurement": "GI50", "setting": "DU145; [6]", "result": 0.85, "unit": "µM"},
      {"measurement": "GI50", "setting": "KB; [7]", "result": 0.5, "unit": "µM"}
    ]},
    {"smiles": "CCCN1C[C@@H]2Cc3c(c4ccc(OC)cc4c4cc(OC)c(OC)cc34)CN2C1", "note": "[Compound 3c, (S)-12-aza-12N-propyl-antofine]", "values": [
      {"measurement": "GI50", "setting": "HCT-8; [8]", "result": 2.71, "unit": "µM"},
      {"measurement": "melting point", "result": "155 to 157", "unit": "°C"},
      {"measurement": "GI50", "setting": "A549; [9]", "result": 3.94, "unit": "µM"},
      {"measurement": "GI50", "setting": "DU145; [10]", "result": 7.38, "unit": "µM"},
      {"measurement": "GI50", "setting": "KB; [11]", "result": 6.64, "unit": "µM"}
    ]},
    {"smiles": "COc1ccc2c3c(c4cc(OC)c(OC)cc4c2c1)C[C@H]1CN(CCc2ccccc2)CN1C3", "note": "[Compound 3d, (S)-12-aza-12N-phenylethylenyl-antofine]", "values": [
      {"measurement": "GI50", "setting": "HCT-8; [12]", "result": 7.47, "unit": "µM"},
      {"measurement": "melting point", "result": "85 to 87", "unit": "°C"},
      {"measurement": "GI50", "setting": "A549; [13]", "result": 6.62, "unit": "µM"},
      {"measurement": "GI50", "setting": "DU145; [14]", "result": 10.2, "unit": "µM"},
      {"measurement": "GI50", "setting": "KB; Homo sapiens, KB", "result": 10, "unit": "µM"}
    ]},
    {"smiles": "COc1ccc2c3c(c4cc(OC)c(OC)cc4c2c1)C[C@H]1CN(CCO)CN1C3", "note": "[Compound 3e, (S)-12-aza-12N-hydroxylethyl-antofine]", "values": [
      {"measurement": "GI50", "setting": "HCT-8; [8]", "result": 10.8, "unit": "µM"},
      {"measurement": "melting point", "result": "210 to 212", "unit": "°C"},
      {"measurement": "GI50", "setting": "A549; [9]", "result": 4.41, "unit": "µM"},
      {"measurement": "GI50", "setting": "DU145; [10]", "result": 6.36, "unit": "µM"},
      {"measurement": "GI50", "setting": "KB; [11]", "result": 7.83, "unit": "µM"}
    ]},
    {"smiles": "COc1ccc2c3c(c4cc(OC)c(OC)cc4c2c1)C[C@H]1CN(C2CC2)CN1C3", "note": "[Compound 3g, (S)-12-aza-12N-cyclopropyl-antofine]", "values": [
      {"measurement": "GI50", "setting": "HCT-8; [8]", "result": 1.85, "unit": "µM"},
      {"measurement": "melting point", "result": "204 to 206", "unit": "°C"},
      {"measurement": "GI50", "setting": "A549; [9]", "result": 1.8, "unit": "µM"},
      {"measurement": "GI50", "setting": "DU145; [10]", "result": 3.7, "unit": "µM"},
      {"measurement": "GI50", "setting": "KB; [11]", "result": 2.71, "unit": "µM"}
    ]},
    {"smiles": "COc1ccc2c3c(c4cc(OC)c(OC)cc4c2c1)C[C@H]1CN(C)CN1C3", "note": "[Compound 3i, (S)-12-aza-12N-dimethylamino-antofine]", "values": [
      {"measurement": "GI50", "setting": "HCT-8; Example 2, Table 2, 12-aza-antofines, read-out: GI50 HCT-8", "result": 2.01, "unit": "µM"},
      {"measurement": "GI50", "setting": "A549; [1]", "result": 1.67, "unit": "µM"},
      {"measurement": "GI50", "setting": "DU145; [2]", "result": 2.26, "unit": "µM"},
      {"measurement": "GI50", "setting": "KB; [3]", "result": 2.31, "unit": "µM"}
    ]},
    {"smiles": "COC1=C[C@@H]2Cc3c(c4ccc(OC)cc4c4cc(OC)c(OC)cc34)CN2C1", "note": "[Compound 7, (S)-12-methoxy-antofine-12-ene]", "values": [
      {"measurement": "GI50", "setting": "KBvin", "result": 2.64, "unit": "µM"},
      {"measurement": "GI50", "setting": "HCT-8; read-out: GI50 HCT-8", "result": 3.56, "unit": "µM"},
      {"measurement": "GI50", "setting": "A549; read-out: GI50 A549", "result": 5.97, "unit": "µM"},
      {"measurement": "GI50", "setting": "DU145; read-out: GI50 DU145", "result": 10.3, "unit": "µM"},
      {"measurement": "GI50", "setting": "KB", "result": 12.00, "unit": "µM"}
    ]},
    {"smiles": "COc1ccc2c3c(c4cc(OC)c(OC)cc4c2c1)C[C@H]1CNCCN1C3.Cl.Cl", "note": "[Compound 8a, (S)-13-aza-cryptopleurine dihydrochloride]", "values": [
      {"measurement": "GI50", "setting": "HCT-8; read-out: GI50 HCT-8", "result": 1.62, "unit": "µM"},
      {"measurement": "GI50", "setting": "A549; read-out: GI50 A549", "result": 1.73, "unit": "µM"},
      {"measurement": "GI50", "setting": "DU145; read-out: GI50 DU145", "result": 2.08, "unit": "µM"},
      {"measurement": "GI50", "setting": "KB", "result": 1.79, "unit": "µM"}
    ]},
    {"smiles": "CCN1CCN2Cc3c(c4cc(OC)c(OC)cc4c4cc(OC)ccc34)C[C@H]2C1", "note": "[Compound 8b, (S)-13-aza-13N-ethyl-cryptopleurine]", "values": [
      {"measurement": "GI50", "setting": "HCT-8; [15]", "result": 9.45, "unit": "µM"},
      {"measurement": "melting point", "result": "83 to 85", "unit": "°C"},
      {"measurement": "GI50", "setting": "A549; [16]", "result": 7.13, "unit": "µM"},
      {"measurement": "GI50", "setting": "DU145; [17]", "result": 10.5, "unit": "µM"},
      {"measurement": "GI50", "setting": "KB; [18]", "result": 8.24, "unit": "µM"}
    ]},
    {"smiles": "COC(=O)N1CCN2Cc3c(c4cc(OC)c(OC)cc4c4cc(OC)ccc34)C[C@H]2C1", "note": "[Compound 8c, (S)-13-aza-13N-methoxycarbonyl-cryptopleurine]", "values": [
      {"measurement": "GI50", "setting": "HCT-8; [15]", "result": 12.1, "unit": "µM"},
      {"measurement": "melting point", "result": "99 to 101", "unit": "°C"},
      {"measurement": "GI50", "setting": "A549; [16]", "result": 10.9, "unit": "µM"},
      {"measurement": "GI50", "setting": "DU145; [17]", "result": 12.2, "unit": "µM"},
      {"measurement": "GI50", "setting": "KB; [18]", "result": 11.3, "unit": "µM"}
    ]},
    {"smiles": "COc1ccc2c3c(c4cc(OC)c(OC)cc4c2c1)C[C@H]1CN(C(C)=O)CCN1C3", "note": "[Compound 8d, (S)-13-aza-13N-acetyl-cryptopleurine]", "values": [
      {"measurement": "GI50", "setting": "HCT-8; [12]", "result": 13.8, "unit": "µM"},
      {"measurement": "melting point", "result": "123 to 125", "unit": "°C"},
      {"measurement": "GI50", "setting": "A549; [13]", "result": 11.7, "unit": "µM"},
      {"measurement": "GI50", "setting": "DU145; [14]", "result": 11.9, "unit": "µM"},
      {"measurement": "GI50", "setting": "KB; Homo sapiens, KB", "result": 15.5, "unit": "µM"}
    ]},
    {"smiles": "COc1ccc2c3c(c4cc(OC)c(OC)cc4c2c1)C[C@H]1CN(S(C)(=O)=O)CCN1C3", "note": "[Compound 8e, (S)-13-aza-13N-methylsulfonyl-cryptopleurine]", "values": [
      {"measurement": "GI50", "setting": "HCT-8; read-out: GI50 HCT-8", "result": 17.8, "unit": "µM"},
      {"measurement": "GI50", "setting": "A549; read-out: GI50 A549", "result": 14.5, "unit": "µM"},
      {"measurement": "GI50", "setting": "DU145; read-out: GI50 DU145", "result": 17, "unit": "µM"},
      {"measurement": "GI50", "setting": "KB", "result": 17.52, "unit": "µM"}
    ]}
  ]
}
